Data on 35 compounds can be found in patent publication US9540356B2 (priority 2012, dated 2017).

For experiment [1], the system named is HeLa cells. The experiment can be described thus: cells. The format is cell-based. To be noted: Homo sapiens.
The subject of experiment [2] is HeLa cells. The format is cell-based, human.
Experiment [3] deals with retrograde transport of Shiga toxin subunit B (StxB). The format is cell-based.

Each structure is given as a SMILES string. Some results are limits rather than exact numbers.

In the case of `C=CCOC(=O)c1ccccc1N1C(=O)c2ccccc2N(C)C1c1ccc(C)s1` (stereo not shown) [Compound 67, Allyl 2-(1-methyl-2-(5-methylthiophen-2-yl)-4-oxo-1,4-dihydroquinazolin-3(2H)-yl)benzoate], inhibition in the experiment with HeLa cells [1] was half-maximal at 13 µM (IC50).

As to `Cc1ccc(C2N(C)c3ccccc3C(=O)N2c2ccccc2F)s1` (stereo not shown) [Compound 58, 3-(2-Fluorophenyl)-1-methyl-2-(5-methylthiophen-2-yl)-2,3-dihydroquinazolin-4(1H)-one], in the experiment with HeLa cells [1], half-maximal inhibition (IC50) required 5.5 µM. Also, the “R (Stx), protective index” value in the experiment on HeLa cells [2] came out at 25.

Turning to `Cc1ccc(C2N(C)c3ccccc3C(=O)N2c2ccccc2)s1` (stereo not shown) [Compound 35, 1-Methyl-2-(5-methylthiophen-2-yl)-3-phenyl-2,3-dihydroquinazolin-4(1H)-one], the “R (Stx), protective index” value with HeLa cells [2] is 80.

For `O=C1c2ccccc2NC(c2ccc(-c3ccccc3)s2)N1c1ccccc1` (stereo not shown) [Compound 13, 3-Phenyl-2-(5-phenylthiophen-2-yl)-2,3-dihydroquinazolin-4(1H)-one], the “retrograde transport, % control” value in experiment [3] is listed as 13.1%. The “R (Stx), protective index” value in the experiment on HeLa cells [2] worked out at 153.

Take `CN1c2ccc(F)cc2C(=O)N(c2ccccc2)C1c1ccc(-c2csc(CN=[N+]=[N-])n2)s1` (stereo not shown) [Compound 64, 2-(5-(2-(Azidomethyl)thiazol-4-yl)thiophen-2-yl)-6-fluoro-1-methyl-3-phenyl-2,3-dihydroquinazolin-4(1H)-one]: in the experiment with HeLa cells [1], the IC50 (commonly the concentration needed to halve the response being measured) is below 3 µM.

As for `O=C1c2ccccc2NC(c2ccc(-c3cccs3)s2)N1c1ccccc1` (stereo not shown) [Compound 18, 2-([2,2′-Bithiophen]-5-yl)-3-phenyl-2,3-dihydroquinazolin-4(1H)-one], the “retrograde transport, % control” value in experiment [3] is listed as 17.1%. In the experiment with HeLa cells [2], the “R (Stx), protective index” value came to 50.

With `COc1ccccc1N1C(=O)c2ccccc2N(C)C1c1ccc(C)s1` (stereo not shown) [Compound 56, 3-(2-Methoxyphenyl)-1-methyl-2-(5-methylthiophen-2-yl)-2,3-dihydroquinazolin-4(1H)-one], in the experiment with HeLa cells [1], half-maximal inhibition (IC50) was put at 5.4 µM. The “R (Stx), protective index” value in the experiment with HeLa cells [2] came out at 26.

In the case of `CSc1ccc(C2Nc3ccccc3C(=O)N2c2ccccc2)s1` (stereo not shown) [Compound 17, 2-(5-(Methylthio)thiophen-2-yl)-3-phenyl-2,3-dihydroquinazolin-4(1H)-one], the “retrograde transport, % control” value in experiment [3] turned out to be 22.8%. In the experiment on HeLa cells [2], the “R (Stx), protective index” value is listed as 43.

Compound `COCCOc1ccccc1N1C(=O)c2ccccc2N(C)C1c1ccc(C)s1` (stereo not shown) [Compound 68, 3-(2-(2-Methoxyethoxy)phenyl)-1-methyl-2-(5-methylthiophen-2-yl)-2,3-dihydroquinazolin-4(1H)-one] registered an IC50 in the experiment with HeLa cells [1] of 4.2 µM.

In the experiment on HeLa cells [1], `Cc1ccc(C2N(C)c3ccccc3C(=O)N2c2ccccc2C(=O)O)s1` (stereo not shown) [Compound 69, 2-(1-Methyl-2-(5-methylthiophen-2-yl)-4-oxo-1,4-dihydroquinazolin-3(2H)-yl)benzoic acid] came in with an IC50 of 11.2 µM.

With `Cc1ccc(C2N(C)c3ccccc3C(=O)N2c2ccccc2-c2ccccc2)s1` (stereo not shown) [Compound 59, 3-([1,1′-Biphenyl]-2-yl)-1-methyl-2-(5-methylthiophen-2-yl)-2,3-dihydroquinazolin-4(1H)-one], half-maximal inhibition with HeLa cells [1] (IC50) was put at 3.7 µM. Moreover, in the experiment with HeLa cells [2], the “R (Stx), protective index” value stood at 27.

As to `Cc1ccc(C2N(C)c3ccccc3C(=O)N2c2ccccc2I)s1` (stereo not shown) [Compound 55, 3-(2-Iodophenyl)-1-methyl-2-(5-methylthiophen-2-yl)-2,3-dihydroquinazolin-4(1H)-one], the IC50 with HeLa cells [1] came out at 5.4 µM. The “R (Stx), protective index” value with HeLa cells [2] is 25.

`CN1c2ccccc2C(=O)N(c2ccccc2)C1c1ccc(-c2ccccc2)s1` (stereo not shown) [Compound 36, 1-Methyl-3-phenyl-2-(5-phenylthiophen-2-yl)-2,3-dihydroquinazolin-4(1H)-one]: the “retrograde transport, % control” value in experiment [3] stood at 7.1%. For the same compound, the “R (Stx), protective index” value with HeLa cells [2] was determined as 29.

For the compound `O=C1c2ccccc2NC(c2ccc(-c3ccccn3)s2)N1c1ccccc1` (stereo not shown) [Compound 19, 3-Phenyl-2-(5-(pyridin-2-yl)thiophen-2-yl)-2,3-dihydroquinazolin-4(1H)-one], in experiment [3], the “retrograde transport, % control” value is 10.7%. Further, the “R (Stx), protective index” value in the experiment with HeLa cells [2] was 46.

Turning to `CN1c2ccccc2C(=O)N(c2ccccc2)C1c1ccc(-c2ccccn2)s1` (stereo not shown) [Compound 37, 1-Methyl-3-phenyl-2-(5-(pyridin-2-yl)thiophen-2-yl)-2,3-dihydroquinazolin-4(1H)-one], in experiment [3], the “retrograde transport, % control” value amounted to 10.3%. In the experiment with HeLa cells [2], the “R (Stx), protective index” value is on record as 111.

Turning to `Cc1nc(-c2ccc(C3N(C)c4ccc(F)cc4C(=O)N3c3ccccc3)s2)cs1` (stereo not shown) [Compound 61, 6-Fluoro-1-methyl-2-(5-(2-methylthiazol-4-yl)thiophen-2-yl)-3-phenyl-2,3-dihydroquinazolin-4(1H)-one], the “R (Stx), protective index” value with HeLa cells [2] worked out at 40.

In the case of `Cc1nc(-c2ccc(C3Nc4ccc(F)cc4C(=O)N3c3ccccc3)s2)cs1` (stereo not shown) [Compound 34, 6-Fluoro-2-(5-(2-methylthiazol-4-yl)thiophen-2-yl)-3-phenyl-2,3-dihydroquinazolin-4(1H)-one], the “R (Stx), protective index” value with HeLa cells [2] is recorded as 295.

For the compound `Cc1ccc(C2N(C)c3ccccc3C(=O)N2c2ccccc2S(=O)(=O)c2ccccc2)s1` (stereo not shown) [Compound 60, 1-Methyl-2-(5-methylthiophen-2-yl)-3-(2-(phenylsulfonyl)phenyl)-2,3-dihydroquinazolin-4(1H)-one], the “R (Stx), protective index” value in the experiment on HeLa cells [2] came out at 320.

`Cc1ccc(C2N(C)c3ccccc3C(=O)N2c2ccccc2Cl)s1` (stereo not shown) [Compound 54, 3-(2-Chlorophenyl)-1-methyl-2-(5-methylthiophen-2-yl)-2,3-dihydroquinazolin-4(1H)-one]: 8.2 µM corresponded to half-maximal inhibition in the experiment on HeLa cells [1] (IC50). In addition, the “R (Stx), protective index” value with HeLa cells [2] came out at 27.

Regarding `CN1c2ccccc2C(=O)N(c2ccccc2)C1c1ccc(-c2cccs2)s1` (stereo not shown) [Compound 39, 2-([2,2′-Bithiophen]-5-yl)-1-methyl-3-phenyl-2,3-dihydroquinazolin-4(1H)-one], the “retrograde transport, % control” value in experiment [3] is given as 6.2%. Besides, in the experiment on HeLa cells [2], the “R (Stx), protective index” value stood at 36.

For the compound `Cc1nc(-c2ccc(C3N(C)c4ccccc4C(=O)N3c3ccccc3)s2)cs1` (stereo not shown) [Compound 42, 1-Methyl-2-(5-(2-methylthiazol-4-yl)thiophen-2-yl)-3-phenyl-2,3-dihydroquinazolin-4(1H)-one], the “retrograde transport, % control” value in experiment [3] was determined as 0.0%. In addition, in the experiment on HeLa cells [2], the “R (Stx), protective index” value is listed as 85.

`CN1c2ccccc2C(=O)N(c2ccccc2)C1c1ccc(CN=[N+]=[N-])s1` (stereo not shown) [Compound 62, 2-(5-(Azidomethyl)thiophen-2-yl)-1-methyl-3-phenyl-2,3-dihydroquinazolin-4(1H)-one]: the IC50 with HeLa cells [1] was 12 µM.

As for `CSc1ccc(C2N(C)c3ccccc3C(=O)N2c2ccccc2)s1` (stereo not shown) [Compound 38, 1-Methyl-2-(5-(methylthio)thiophen-2-yl)-3-phenyl-2,3-dihydroquinazolin-4(1H)-one], the “retrograde transport, % control” value in experiment [3] is on record as 18.2%. The “R (Stx), protective index” value in the experiment on HeLa cells [2] was 60.

Turning to `CN1c2ccccc2C(=O)N(c2ccccc2)C1c1ccc(Sc2ccccc2)s1` (stereo not shown) [Compound 44, 1-Methyl-3-phenyl-2-(5-(phenylthio)thiophen-2-yl)-2,3-dihydroquinazolin-4(1H)-one], the “R (Stx), protective index” value in the experiment with HeLa cells [2] is on record as 71.

In turn, `Cc1nc(-c2ccc(C3N(C)c4ccccc4C(=O)N3c3ccccc3C(=O)c3ccccc3)s2)cs1` (stereo not shown) [Compound 65, 3-(2-Benzoylphenyl)-1-methyl-2-(5-(2-methylthiazol-4-yl)thiophen-2-yl)-2,3-dihydroquinazolin-4(1H)-one] showed an IC50 in the experiment on HeLa cells [1] of 1 to 3 µM.

For the compound `CSc1ccccc1N1C(=O)c2ccccc2N(C)C1c1ccc(C)s1` (stereo not shown) [Compound 57, 1-Methyl-3-(2-(methylthio)phenyl)-2-(5-methylthiophen-2-yl)-2,3-dihydroquinazolin-4(1H)-one], in the experiment with HeLa cells [1], half-maximal inhibition (IC50) was put at 3.8 µM. For the same compound, the “R (Stx), protective index” value with HeLa cells [2] is 25.

`Cc1nc(-c2ccc(C3Nc4ccccc4C(=O)N3c3ccccc3)s2)cs1` (stereo not shown) [Compound 21, 2-(5-(2-Methylthiazol-4-yl)thiophen-2-yl)-3-phenyl-2,3-dihydroquinazolin-4(1H)-one]: in experiment [3], the “retrograde transport, % control” value turned out to be 0.0%. Also, in the experiment on HeLa cells [2], the “R (Stx), protective index” value is reported as 109.

Take `O=C1c2ccccc2NC(c2ccc(Br)s2)N1c1ccccc1` (stereo not shown) [Compound 9, 2-(5-Bromothiophen-2-yl)-3-phenyl-2,3-dihydroquinazolin-4(1H)-one]: it took 13.7 µM to reach half-maximal inhibition in the experiment with HeLa cells [1] (IC50). Besides, in the experiment on HeLa cells [2], the “R (Stx), protective index” value is reported as 27.9.

Turning to `CN1c2ccccc2C(=O)N(c2ccccc2)C1c1ccc(-c2ccoc2)s1` (stereo not shown) [Compound 47, 2-(5-(Furan-3-yl)thiophen-2-yl)-1-methyl-3-phenyl-2,3-dihydroquinazolin-4(1H)-one], in the experiment with HeLa cells [2], the “R (Stx), protective index” value is on record as 49.

`CN1c2ccccc2C(=O)N(c2ccccc2)C1c1ccc(-c2csc(CN=[N+]=[N-])n2)s1` (stereo not shown) [Compound 63, 2-(5-(2-(Azidomethyl)thiazol-4-yl)thiophen-2-yl)-1-methyl-3-phenyl-2,3-dihydroquinazolin-4(1H)-one] had an IC50 with HeLa cells [1] of 3 to 5 µM.

Consider `Cc1nc(-c2ccc(C3N(C)c4ccc(F)cc4C(=O)N3c3ccccc3C(=O)c3ccccc3)s2)cs1` (stereo not shown) [Compound 66], for which it took 1 µM to reach half-maximal inhibition with HeLa cells [1] (IC50).

For `CN1c2ccccc2C(=O)N(c2ccccc2)C1c1ccc(Br)s1` (stereo not shown) [Compound 43, 2-(5-Bromothiophen-2-yl)-1-methyl-3-phenyl-2,3-dihydroquinazolin-4(1H)-one], the “R (Stx), protective index” value in the experiment on HeLa cells [2] amounted to 40.

Consider `CSc1ccccc1N1C(=O)c2ccccc2NC1c1ccc(C)s1` (stereo not shown) [Compound 31, 3-(2-(Methylthio)phenyl)-2-(5-methylthiophen-2-yl)-2,3-dihydroquinazolin-4(1H)-one], for which the “R (Stx), protective index” value in the experiment with HeLa cells [2] worked out at 99.

Take `Cc1ccc(C2Nc3ccccc3C(=O)N2c2ccccc2Cl)s1` (stereo not shown) [Compound 32, 3-(2-Chlorophenyl)-2-(5-methylthiophen-2-yl)-2,3-dihydroquinazolin-4(1H)-one]: the “R (Stx), protective index” value in the experiment on HeLa cells [2] amounted to 68.

With `Cc1ccc(C2Nc3ccc(F)cc3C(=O)N2c2ccccc2)s1` (stereo not shown) [Compound 25, 6-Fluoro-2-(5-methylthiophen-2-yl)-3-phenyl-2,3-dihydroquinazolin-4(1H)-one], in the experiment on HeLa cells [2], the “R (Stx), protective index” value is recorded as 133.
